From patent publication US9079880B2, “Rho kinase inhibitors” (Boehringer Ingelheim International GmbH, priority 2010, dated 2015)

Target: ROCKII (1-543) (Homo sapiens (Human), UniProt O75116)
Experiment: Luciferin-Luciferase Assay (PKLight ATP detection)
Assay type: biochemical
Conditions: 750 nM ATP, 500 nM peptide, 7.5 nM kinase
Description: 1. Luciferin-Luciferase Assay
The activity of ROCKII (1-543) kinase was measured utilizing Cambrex PKLight ATP Detection Reagent, a homogeneous assay technology using luciferin-luciferase to quantify residual ATP. The assay was performed in 384-well low-volume, white, non-binding surface microtiter plates (Corning). The assay buffer was 25 mM HEPES, pH 7.5, 10 mM MgCl2, 50 mM KCl, 0.2% BSA, 0.01% CHAPS, 100 μM Na3VO4 and 0.5 mM DTT. Test compounds, dissolved in neat DMSO at 500 μg/mL, were serially diluted for dose response for a final starting concentration of 3 μg/mL in 1% DMSO of assay buffer. ROCKII (1-543) (62,408Da) was diluted in assay buffer to a final concentration of 7.5 nM in a total volume of 15 μL. Positive controls were reaction mixtures containing no test compound; negative controls (blanks) were reaction mixtures containing no kinase. After 15 minutes of pre-incubation of the test compounds with the kinase, a mixture of ATP and peptide substrate ([…]) in assay buffer was added to each well for a final concentration of 750 nM ATP and 500 nM peptide, respectively. After 90 minutes of incubation of the kinase reaction at 28° C. temperature, 10 μL of PKLight ATP Detection Reagent (warmed to room temperature previously) was added to each well. The assay plate was incubated at room temperature for additional 15 minutes and then read on an Analyst in luminescence mode. Dose-response experiments for each of the test compounds were conducted in quadruplet. IC50 values of test compounds represent 50% response of the positive control from the dose-response curve.

Sequence of ROCKII (1-543) (O75116 1-543): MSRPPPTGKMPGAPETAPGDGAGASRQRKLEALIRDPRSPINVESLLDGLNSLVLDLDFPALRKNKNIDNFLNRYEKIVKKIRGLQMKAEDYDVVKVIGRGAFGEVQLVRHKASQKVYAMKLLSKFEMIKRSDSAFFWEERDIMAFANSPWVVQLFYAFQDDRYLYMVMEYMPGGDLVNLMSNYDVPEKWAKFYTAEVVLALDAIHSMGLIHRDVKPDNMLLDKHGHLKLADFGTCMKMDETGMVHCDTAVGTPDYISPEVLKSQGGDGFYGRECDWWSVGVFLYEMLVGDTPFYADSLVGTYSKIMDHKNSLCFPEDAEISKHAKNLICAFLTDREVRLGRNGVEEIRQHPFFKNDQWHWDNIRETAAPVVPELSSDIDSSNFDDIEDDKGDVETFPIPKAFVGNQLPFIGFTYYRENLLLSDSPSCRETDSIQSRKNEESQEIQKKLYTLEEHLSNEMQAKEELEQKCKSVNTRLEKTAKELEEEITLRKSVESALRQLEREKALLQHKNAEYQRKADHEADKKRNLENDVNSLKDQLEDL

Compound	IC50 [nM]
CCCC[C@@H](NC(=O)Nc1cccc(C#N)c1)c1cccc(C(=O)Nc2nc3c(s2)CN(C)CC3)c1 [Compound 4]	22.4
CCCC[C@@H](NC(=O)c1ccc(OC)c(Cl)c1)c1cccc(C(=O)Nc2nc3c(s2)CN(C)CC3)c1 [Compound 8]	38.1
CC[C@@H](NC(=O)Nc1ccc(C#N)cc1)c1cccc(C(=O)Nc2nc3c(s2)CN(C)CC3)c1 [Compound 12]	23.1
CN1CCc2nc(NC(=O)c3cccc([C@H]4CNC[C@@H]4C(=O)Nc4ccc(C#N)cc4)c3)sc2C1 [Compound 15]	21.2
C[C@@H](Oc1cccc(C(=O)Nc2nc3c(s2)CN(C)CC3)c1)C(=O)Nc1ccc(C#N)cc1 [Compound 19, 3-[(R)-1-(4-cyano-phenylcarbamoyl)-ethoxy]-N-(5-methyl-4,5,6,7-tetrahydro-thiazolo[5,4-c]pyridin-2-yl)-benzamide]	35
CN1CCc2nc(NC(=O)c3cccc(N4CCC[C@@H]4C(=O)Nc4cccc(C#N)c4)c3)sc2C1 [Compound 21]	95.5
Cc1c(C(=O)N2CCC[C@@H]2c2cccc(C(=O)Nc3nc4c(s3)CN(C)CC4)c2)nnn1-c1nonc1N [Compound 30]	33.4
CN1CCc2nc(NC(=O)c3cccc(C4CCCN4C(=O)Nc4cccc(C#N)c4)c3)sc2C1 (stereo not drawn) [Compound 55]	8.8
CN1CCc2ccc(NC(=O)c3cccc(C4CCCN4C(=O)Nc4cccc(C#N)c4)c3)cc2C1 (stereo not drawn) [Compound 59]	22.4
CN1CCc2nc(NC(=O)c3cccc(C4CCCN4C(=O)Nc4ccc(C#N)cc4)c3)sc2C1 (stereo not drawn) [Compound 61]	74.4
C[C@H](NC(=O)Nc1ccc(C#N)cc1)c1cccc(C(=O)Nc2nc3c(s2)CN(C)CC3)c1 [Compound 83]	37.8
C[C@@H](NC(=O)Nc1ccc(C#N)cc1)c1cccc(C(=O)Nc2nc3c(s2)CN(C)CC3)c1 [Compound 85]	22.4
CN1CCc2nc(NC(=O)c3cccc([C@H]4CCCN4C(=O)c4ccc(-c5cc[nH]n5)cc4)c3)sc2C1 [Compound 86]	44.9
CN1CCc2nc(NC(=O)c3cccc(C4CCCCN4C(=O)Nc4cccc(C#N)c4)c3)sc2C1 (stereo not drawn) [Compound 111]	39.3
CN1CCc2nc(NC(=O)c3cccc(C4CCCN(C(=O)Nc5cccc(C#N)c5)C4)c3)sc2C1 (stereo not drawn) [Compound 115]	77.5
C[C@@H](NC(=O)Nc1ccc(C#N)cc1)c1cccc(C(=O)Nc2ccc3c(c2)CN(C)CC3)c1 [Compound 149]	57.5
CN1CCc2nc(NC(=O)c3cccc([C@H]4CCCN4C(=O)c4cn5cc(C#N)ccc5n4)c3)sc2C1 [Compound 150]	25.5
CN1CCc2nc(NC(=O)c3cccc([C@H](NC(=O)Nc4ccc(C#N)cc4)C4CC4)c3)sc2C1 [Compound 157]	45.7

Next, values leading:

IC50 [nM]	Compound
2.8	COc1ccc(C(=O)N[C@@H](c2cccc(C(=O)Nc3nc4c(s3)CN(C)CC4)c2)C2CC2)cc1Cl [Compound 2]
19.1	CN1CCc2nc(NC(=O)c3cccc(N4CCC[C@@H]4C(=O)Nc4ccc(C#N)cc4)c3)sc2C1 [Compound 5, (R)-1-[3-(5-methyl-4,5,6,7-tetrahydro-thiazolo[5,4-c]pyridin-2-ylcarbamoyl)-phenyl]-pyrrolidine-2-carboxylic acid (4-cyano-phenyl)-amide]
5.7	CC[C@@H](NC(=O)Nc1cccc(C#N)c1)c1cccc(C(=O)Nc2nc3c(s2)CN(C)CC3)c1 [Compound 10]
3.8	CC[C@@H](NC(=O)c1ccc(OC)c(Cl)c1)c1cccc(C(=O)Nc2nc3c(s2)CN(C)CC3)c1 [Compound 14]
12.5	Cc1nc(-c2ccncc2)sc1C(=O)N1CCC[C@@H]1c1cccc(C(=O)Nc2nc3c(s2)CN(C)CC3)c1 [Compound 24]
15.3	CN1CCc2nc(NC(=O)c3cccc([C@H]4CCCN4C(=O)Nc4ccc(C#N)cc4)c3)sc2C1 [Compound 38]
17.8	N#Cc1cccc(NC(=O)N2CCCC2c2cccc(C(=O)Nc3ccc4c(c3)CNCC4)c2)c1 (stereo not drawn) [Compound 47, 2-[3-(1,2,3,4-tetrahydro-isoquinolin-7-ylcarbamoyl)-phenyl]-pyrrolidine-1-carboxylic acid (3-cyano-phenyl)-amide trifluoroacetic acid]
11.5	N#Cc1cccc(NC(=O)N2CCC[C@@H]2c2cccc(C(=O)Nc3ccc4c(c3)CNCC4)c2)c1 [Compound 53]
20.9	N#Cc1cccc(NC(=O)N2CCCC2c2cccc(C(=O)Nc3nc4c(s3)CN(Cc3ccccc3)CC4)c2)c1 (stereo not drawn) [Compound 57]
5.4	CN1CCc2nc(NC(=O)c3cccc(C4CCCN4C(=O)Nc4ccc(C(N)=O)cc4)c3)sc2C1 (stereo not drawn) [Compound 77]
5.5	C[C@@H](NC(=O)Nc1cccc(C#N)c1)c1cccc(C(=O)Nc2nc3c(s2)CN(C)CC3)c1 [Compound 81]
20.8	CN1CCc2nc(NC(=O)c3cccc([C@H]4CCCN4C(=O)c4ccc5[nH]c(=O)ccc5c4)c3)sc2C1 [Compound 84]
12.5	N#Cc1cccc(NC(=O)N2CCC[C@@H]2c2cccc(C(=O)Nc3nc4c(s3)CN(Cc3ccccc3)CC4)c2)c1 [Compound 105]
9.5	CN1CCc2ccc(NC(=O)c3cccc([C@H]4CCCN4C(=O)Nc4cccc(C#N)c4)c3)cc2C1 [Compound 109]
18.7	CN1CCc2nc(NC(=O)c3cccc(C4CCCCN4C(=O)Nc4ccc(C#N)cc4)c3)sc2C1 (stereo not drawn) [Compound 117]
8.9	COc1ccc(C(=O)N[C@H](C)c2cccc(C(=O)Nc3ccc4c(c3)CN(C)CC4)c2)cc1OC [Compound 141]
14	COc1ccc(C(=O)N[C@H](C)c2cccc(C(=O)Nc3ccc4c(c3)CN(C)CC4)c2)cc1Cl [Compound 143]
10.5	COc1ccc(C(=O)N[C@H](C)c2cccc(C(=O)Nc3ccc4c(c3)CN(C)CC4)c2)cc1C [Compound 145]
18.9	C[C@@H](NC(=O)Nc1cccc(C#N)c1)c1cccc(C(=O)Nc2ccc3c(c2)CN(C)CC3)c1 [Compound 147]
9.5	C[C@@H](NC(=O)Nc1ccc(C(N)=O)cc1)c1cccc(C(=O)Nc2ccc3c(c2)CN(C)CC3)c1 [Compound 153]
9.7	CN1CCc2nc(NC(=O)c3cccc([C@H](NC(=O)Nc4cccc(C#N)c4)C4CC4)c3)sc2C1 [Compound 155]
